Test results from US9675563B2, “Method for adjunctive treatment of cancer metastasis by using lycogen” (ASIA-PACIFIC BIOTECH DEVELOPING, INC., priority 2015, dated 2017).

Assays:
Assay type in all cases: cell-based, human
HUVEC cells [1] = assay: In vitro angiogenesis assay (H2O2-induced tubeformation in matrigel); settings: 5-FU alone, 6 hours after treatment
Experimental: (§1) The in vitro angiogenesis assay was a model test used for studying anti-angiogenic nutrient or drugs, and the assay was highly convenient and fast. […] H2O2 was used to induce tubeformation in matrigel to evaluate the effect of Lycogen on the index of angiogenesis. HUVEC cells were dissolved in 10% serum-containing culture media, and then HUVEC cells were seeded into matrigel pre-coated 24-well plates in a density of […] per well. Except for the control group HUVEC cells in all other groups were treated with solvent vehicle, 5-FU, 5-FU plus 10 μM Lycogen, 5-FU plus 30 μM Lycogen, and 5-FU plus 50 μM of Lycogen, respectively. Each assay under the same experimental condition was performed in duplicate and this experiment was repeated twice. Phase contrast photomicrographs were taken by a phase contrast microscope with 100× magnification at 6 hours after the treatment.

HUVEC cells [2] = assay: Cell migration analysis under the angiogenesis assay conditions; settings: 5-FU alone
Experimental: as §1
In another example, the effect of Lycogen on cell migration was analyzed under the same conditions of the aforementioned angiogenesis analysis.

EA.hy926 cell line [3] = assay: EA.hy926 cell migration analysis (migration areas); settings: 25 μg/mL 5-FU, 24 hours
Experimental: In another example, the effect of Lycogen on cell migration in human umbilical vein endothelial cell line (EA.hy926 cell line) was analyzed. The cell line was treated with different concentrations of Lycogen (0, 2, 5, and 10 μM) or 25 μg/mL 5-FU, and the EA.hy926 cell migration was analyzed 24 hours after treatments to calculate the migration areas.

EA.hy926 cell line [4] = assay: Cancer cell invasion assay (Matrigel, fluorescent microscope); settings: 25 μg/mL 5-FU, 24 hours, compared to 0 μg/ml group
Experimental: In one embodiment, the EA.hy926 cell line was used to analyze the ability of Lycogen on inhibiting cancer cell invasion. EA.hy926 cell line was treated with various concentration of Lycogen (0, 2, 5, and 10 μM) or 25 μg/mL 5-FU. Twenty-four hours after treatment, the Matrigel was used to analyze the cell invasion, and fluorescent microscope was used to observe the cancer cell invasion.
Cells were cultured on the plate, which was covered by a semipermeable membrane, to mimic the condition of cell invasion in vivo. The basal membrane was interrupted in invasive tumor cell to invade adjacent tissue. The cell culture plate was scratched by a sterile tip or cotton thread to create an acellular space. The cell lines were treated with different treatments, and then the cell number inside the membrane was counted.

SMILES: O=c1[nH]cc(F)c(=O)[nH]1 [5-FU]
- cell tubeformation (HUVEC cells [1]): did inhibit
- cell migration (HUVEC cells [2]): did inhibit
- cancer cell migration (migration areas) (EA.hy926 cell line [3]): had the ability of inhibiting cancer cell migration
- invaded cell number (EA.hy926 cell line [4]): significantly decreased
